B1: AT1G59990.1_1: uORF of AT1G59990.1; peptide SEQ ID NO: 8 (nucleic acid)
DNA: ATGAAGAGAGAGACTGAAACAGAGGTTTCTTACTTTCTTCTCTGTATCTCTCATATTTTGCTTAAACCCTAA
modifications: listed as DNA, chemistry not fully specified
B2: AT1G59700.1_1: uORF of AT1G59700.1; peptide SEQ ID NO: 7 (nucleic acid)
DNA: ATGATATGTCCGTTTAGAAACAGACAAAATAAGAAGAAGAAGAAAGAGTCGTGGAGGATTCTTCATTCTTCCTCATCCTCTTCTTCACCGATTCATTAG
modifications: listed as DNA, chemistry not fully specified
B3: AT1G72390.1: 5′ UTR of transcript (nucleic acid)
DNA: CCTTTCTCTTCCGATCGCATCTTCTTCAAAAATTTCCCACCTGTGTTTCACAAATTCCATGTTTATGAATTCTTCATTGCTCTATTCTTAGTCACCTTTGATTTCTCTCGCTTTCTATCCGATCCAATTGTTTGATGATCTTCTCTGTAACAAGCTCATAAGGTTTGAGCTTCATCTCTCTGGAGAGAATCC
B4: AT2G34630.1: 5′ UTR of transcript; geranyl diphosphate synthase 1 (nucleic acid)
DNA: AAGCGAACAAGTCTTTGCCTCTTTGGTTTACTTTCCTCTGTTTTCGATCCATTTAGAAAATGTTATTCACGAGGAGTGTTGCTCGGATTTCTTCTAAGTTTCTGAGAAACCGTAGCTTCTATGGCTCCTCTCAATCTCTCGCCTCTCATCGGTTCGCAATCATTCCCGATCAGGGTCACTCTTGTTCTGACTCTCCACACAAGTAGGGTTACGTTTGCAGAACAACTTATTCATTGAAATCTCCGGTTTTTGGTGGATTTAGTCATCAACTCTATCACCAGAGTAGCTCCTTGGTTGAGGAGGAGCTTGACCCATTTTCGCTTGTTGCCGATGAGCTGTCACTTCTTAGTAATAAGTTGAGAGAG
B5: AT1G59990.1: 5′ UTR of transcript; DEA(D/H)-box RNA helicase family protein (nucleic acid)
DNA: AGTGAGCTAATGAAGAGAGAGACTGAAACAGAGGTTTCTTACTTTCTTCTCTGTATCTCTCATATTTTGCTTAAACCCTAAAACCCTTTTTGGATTAGGTTTTCTCCAAATCTTATCCGCCGTGATAAAATCTGATTGCTTTTTTTCTTCATGAAAGTTTGATTTGTGAAACTCG

These molecules were tested on Arabidopsis (assay: Ribo-seq and RNA-seq global translatome profiling (translational efficiency TE, mORF/uORF ribo-shift) upon elf18 treatment). Conditions: shift of mORF/uORF ratio, elf18 vs Mock; per uORF.
Assay type: in vivo
Set-up: key to score (Ribo-shift): Up: ribo-shift up (i.e., increased mORF/uORF ratio); Down: ribo-shift down (i.e., decreased mORF/uORF ratio)
In the case of “AT1G12580.1_1: uORF of AT1G12580.1; peptide SEQ ID NO: 1 (DNA ATGCAGCTTGCGATTTCATAG; listed as DNA, chemistry not fully specified)”, the “score (Ribo-shift)” value is reported as “Up”.
With “AT1G19270.1_3: uORF of AT1G19270.1; peptide SEQ ID NO: 3 (DNA ATGAGCAGATAG; listed as DNA, chemistry not fully specified)” the “score (Ribo-shift)” value was “Down”.
For “AT1G30330.1_1: uORF of AT1G30330.1; peptide SEQ ID NO: 4 (DNA ATGTTCTGCAACAGTTGA; listed as DNA, chemistry not fully specified)”, the “score (Ribo-shift)” value was “Up”.
In the case of “AT1G30330.13: uORF of AT1G30330.1; peptide SEQ ID NO: 5 (DNA ATGAGTGGGGTGGATTAA; listed as DNA, chemistry not fully specified)”, the “score (Ribo-shift)” value is reported as “Down”.
For “AT1G72390.1_1: uORF of AT1G72390.1; peptide SEQ ID NO: 9 (DNA ATGTTTATGAATTCTTCATTGCTCTATTCTTAG; listed as DNA, chemistry not fully specified)”, the “score (Ribo-shift)” value was “Down”.
In the case of “AT2G34630.1_2: uORF of AT2G34630.1; peptide SEQ ID NO: 10 (DNA ATGAGCTGTCACTTCTTAGTAATAAGTTGA; listed as DNA, chemistry not fully specified)”, the “score (Ribo-shift)” value is reported as “Up”.
For “AT2G42950.1_1: uORF of AT2G42950.1; peptide SEQ ID NO: 12 (DNA ATGATCTTACGTGAAATTGCAGCCTAA; listed as DNA, chemistry not fully specified)”, the “score (Ribo-shift)” value was “Down”.
In the case of “AT2G47210.1_1: uORF of AT2G47210.1; peptide SEQ ID NO: 13 (DNA ATGATAGCTACCCAGTAA; listed as DNA, chemistry not fully specified)”, the “score (Ribo-shift)” value is reported as “Up”.
“AT3G02570.1_2: uORF of AT3G02570.1; peptide SEQ ID NO: 14 (DNA ATGCTTGAGATATTTTGTTTTTACCTCCGAGAAACGGATTTAGATTCGTAA; listed as DNA, chemistry not fully specified)” was tested, and the “score (Ribo-shift)” value was “Down”.
With “AT3G03070.1_1: uORF of AT3G03070.1; peptide SEQ ID NO: 15 (DNA ATGCGTTGTTTGGTACAGCTTCACGAACAATCTCTCTCTCGATAG; listed as DNA, chemistry not fully specified)” the “score (Ribo-shift)” value was “Down”.
For “AT3G15030.1_2: uORF of AT3G15030.1; peptide SEQ ID NO: 16 (DNA ATGGGTTAG; listed as DNA, chemistry not fully specified)”, the “score (Ribo-shift)” value was “Down”.
For “AT3G18140.1_2: uORF of AT3G18140.1; peptide SEQ ID NO: 17 (DNA ATGGTTGGTTTAATATTTCAATCGGGATAA; listed as DNA, chemistry not fully specified)”, the “score (Ribo-shift)” value was “Down”.
“AT3G56010.1_1: uORF of AT3G56010.1; peptide SEQ ID NO: 19 (DNA ATGCGTCGCTCTTAA; listed as DNA, chemistry not fully specified)” was tested, and the “score (Ribo-shift)” value was “Up”.
In the case of “AT3G63340.1_1: uORF of AT3G63340.1; peptide SEQ ID NO: 20 (DNA ATGAAGCAATTGTTCCTTTCAAGCATGTTTACGAGCAAAAGAGTGAAAGGGTAG; listed as DNA, chemistry not fully specified)”, the “score (Ribo-shift)” value is reported as “Down”.
“AT4G11110.1_1: uORF of AT4G11110.1; peptide SEQ ID NO: 21 (DNA ATGATTGGCTTCTCACGATTCGATTTTTCCGGCTCCTGTTCTTAA; listed as DNA, chemistry not fully specified)” was tested, and the “score (Ribo-shift)” value was “Up”.
“AT4G17840.1_4: uORF of AT4G17840.1; peptide SEQ ID NO: 22 (DNA ATGTTATAA; listed as DNA, chemistry not fully specified)” was tested, and the “score (Ribo-shift)” value was “Up”.
“AT4G18570.1_1: uORF of AT4G18570.1; peptide SEQ ID NO: 23 (DNA ATGCTTTTAATTTCCATGCAAATCTCTCCTTTCTTCTCAAGTCATTTTTGA; listed as DNA, chemistry not fully specified)” was tested, and the “score (Ribo-shift)” value was “Up”.
In the case of “AT4G23740.1_1: uORF of AT4G23740.1; peptide SEQ ID NO: 24 (DNA ATGCCAAAAAATAAGAACAAAATTATATCCGTTGCTTGA; listed as DNA, chemistry not fully specified)”, the “score (Ribo-shift)” value is reported as “Up”.
For “AT4G23740.1_2: uORF of AT4G23740.1; peptide SEQ ID NO: 25 (DNA ATGGCGGTTCTTCACATTATCTTCACTGCGTAA; listed as DNA, chemistry not fully specified)”, the “score (Ribo-shift)” value was “Down”.
In the case of “AT4G26080.1_3: uORF of AT4G26080.1; peptide SEQ ID NO: 27 (DNA ATGTGTTTCTTCTTGTCTTCCTAG; listed as DNA, chemistry not fully specified)”, the “score (Ribo-shift)” value is reported as “Down”.
“AT4G32660.1_1: uORF of AT4G32660.1; peptide SEQ ID NO: 28 (DNA ATGTCGTCGCGGTTCGACCCCAAGGGATTTGGCCGGTAA; listed as DNA, chemistry not fully specified)” was tested, and the “score (Ribo-shift)” value was “Down”.
For “AT4G32800.1_1: uORF of AT4G32800.1; peptide SEQ ID NO: 29 (DNA ATGATAGAAACAAGAACTATCTTTTTATAA; listed as DNA, chemistry not fully specified)”, the “score (Ribo-shift)” value was “Down”.
“AT4G34460.1_1: uORF of AT4G34460.1; peptide SEQ ID NO: 30 (DNA ATGAACCTTCTTCTCTTCTAG; listed as DNA, chemistry not fully specified)” was tested, and the “score (Ribo-shift)” value was “Up”.
For “AT4G37925.1_1: uORF of AT4G37925.1; peptide SEQ ID NO: 31 (DNA ATGGTTCTGTAA; listed as DNA, chemistry not fully specified)”, the “score (Ribo-shift)” value was “Riboshift Down ATGGTTCTGTAA (SEQ ID”.
With “AT4G38950.1_1: uORF of AT4G38950.1; peptide SEQ ID NO: 32 (DNA ATGTGCCCCAAAAGATAA; listed as DNA, chemistry not fully specified)” the “score (Ribo-shift)” value was “Down”.
In the case of “AT5G11790.1_1: uORF of AT5G11790.1; peptide SEQ ID NO: 33 (DNA ATGGAAAGATAA; listed as DNA, chemistry not fully specified)”, the “score (Ribo-shift)” value is reported as “Down”.
For “AT5G14930.1_1: uORF of AT5G14930.1; peptide SEQ ID NO: 34 (DNA ATGGACTCTCGTTCTCAGACATTTATTTCTCTCAGTCTTACAATATAA; listed as DNA, chemistry not fully specified)”, the “score (Ribo-shift)” value was “Down”.
In the case of “AT5G57460.1_1: uORF of AT5G57460.1; peptide SEQ ID NO: 37 (DNA ATGTTTCAATCTAACCATTGA; listed as DNA, chemistry not fully specified)”, the “score (Ribo-shift)” value is reported as “Up”.
For “AT1700.1_1: uORF of AT1G16700.1; peptide SEQ ID NO: 2 (DNA ATGTTCTTGTGA; listed as DNA, chemistry not fully specified)”, the “score (Ribo-shift)” value was “Down”.
For “ATG48300.1_1: uORF of AT1G48300.1; peptide SEQ ID NO: 6 (DNA ATGCGGCGAGGAGAAAGAGAAGGTTAA; listed as DNA, chemistry not fully specified)”, the “score (Ribo-shift)” value was “Up”.
In the case of B1, the “score (Ribo-shift)” value is reported as “Down”.
B2 was tested, and the “score (Ribo-shift)” value was “Down”.

Same assay, conditions: translational efficiency fold change, elf18 vs Mock; listed as shows 5′ UTR of the transcript
“AT1G48300.1: 5′ UTR of transcript (DNA CGAGATGCGGCGAGGAGAAAGAGAAGGTTAAGGTT; listed as DNA, chemistry not fully specified)” was tested, and the “score (TE change)” value was “TEup (448 had increased TEfc)”.
B3 was tested, and the “score (TE change)” value was “TEup (448 had increased TEfc)”.
B4 was tested, and the “score (TE change)” value was “TEup (448 had increased TEfc)”.
In the case of B5, the “score (TE change)” value is reported as “TEdown (389 genes displayed decreased TEfc (|z|≥1.5))”.
